Source: PMC12040169 (PLOS Biology, 2025)

Assay: in vitro
Conditions: human, hela cells, % viability

SMILES	viability at 28.5 h, 10 µM [%]
O=C1NC2(CCc3ccccc31)CCN(Cc1cccnc1)C2 (stereo not shown) [CBK284620]	96.5
COc1ccccc1NC(=O)COc1cccc(Cl)c1Cl [CBK266029]	106
O=C(Nc1ccc(F)cc1)c1c(NS(=O)(=O)c2ccc(Oc3ccccc3)cc2)sc2c1CCCC2 [CBK028653]	96.7
CN(C)CCN(C)Cc1ccc([N+](=O)[O-])cc1 [CBK261728]	110
COc1ccc(NC(=O)N[C@@H]2C=C[C@@H](c3c(C)nn(CCC#N)c3C)C2)cc1 [CBK288804]	94.2
COc1cccc(C(=O)Nc2nc3ccccc3n2Cc2ccccc2)c1OC [CBK299811]	91.4
Cc1ccc(NC(=O)c2nc(-c3ccc(C(=O)N4CCOCC4)cc3)cnc2N)c(O)c1 [CBK149152]	44.3
CC(=O)NC(=O)c1cccc(Br)c1 [CBK022890]	99.3
Cc1nn2cc(-c3n[nH]cc3[N+](=O)[O-])cnc2c1C(=O)O [CBK268883]	98.3
Nc1ccc(-c2cncc(NCCc3ccccn3)n2)cc1 [CBK065632]	103
CN(C)CCCN1CCCC2(CCN(C(=O)c3cc(F)c(F)cc3F)C2)C1 (stereo not shown) [CBK132005]	96.5
Cc1nn(C)c(C)c1NC(=O)CSc1nnc(-c2cccc(Br)c2)n1-c1ccccc1 [CBK267430]	103
CCS(=O)(=O)N1CCN(S(=O)(=O)c2ccccc2[N+](=O)[O-])CC1 [CBK264289]	99
O=C(COc1ccccc1)C(C(=O)c1ccccc1)=C1Nc2ccccc2N1 [CBK263725]	97.8
O=C(NCC(F)(F)F)c1cnc(-c2ccc(Cl)cc2)c(-c2ccco2)c1 [CBK037468]	86.2
CC(C)(O)C#Cc1ccc(C(=O)N2CCCC2C(=O)O)s1 (stereo not shown) [CBK286869]	79.5
N#Cc1ccccc1COC(=O)c1cc(-c2ccc(/C=C/c3nc(O)c([N+](=O)[O-])c(=O)[nH]3)o2)ccc1Cl [CBK269115]	101
FC(F)c1cc(-c2ccccc2)n2ncnc2n1 [CBK025714]	87.3
CC1(C)NC(=O)N(CC(O)CNC23CC4CC(CC(C4)C2)C3)C1=O (stereo not shown) [CBK264823]	95.5
N#Cc1ccc(CNC2(Cc3cc(CO)on3)COC2)cc1 [CBK289647]	104
Cn1c2c(c3ccccc31)CCOC21CCN(CC2CCCCO2)CC1 (stereo not shown) [CBK040649]	87.9
CCOCCCNC(=O)c1cnn2c(C)c(Cc3cccnc3)c(C)nc12 [CBK162152]	100

SMILES	viability at 28.5 h, 10 µM [%]
O=[N+]([O-])c1cc(C(F)(F)F)ccc1N(CCO)CCO [CBK262238]	94.9
CCn1c2cc(C)sc2c2cnn(CC(=O)NC(C)C)c(=O)c21 [CBK284172]	85.8
COc1ccc(NC(=O)C2CN(S(=O)(=O)c3ccccc3)CCN2S(=O)(=O)c2ccccc2)cc1 (stereo not shown) [CBK262500]	98.5
COc1ccc(Br)cc1S(=O)(=O)Nc1nc(C)c(C(=O)O)s1 [CBK045558]	106
O=C(O)C1CCCCC1C(=O)NCCCCc1ccccc1 (stereo not shown) [CBK287205]	83.2
C=CCC1c2cccc(C(=O)O)c2C(=O)N1c1cccc(OC)c1 (stereo not shown) [CBK113160]	96.7
OCC1COCCN(c2ncnc3c2CCC3)C1 (stereo not shown) [CBK304373]	103
Cc1ccc(S(=O)(=O)NC(=O)N2CC3(C)CC2CC(C)(C)C3)cc1 (stereo not shown) [CBK023512]	110
COc1ccccc1-c1cc(Nc2ccc(NS(=O)(=O)c3ccc(C)cc3)cc2)ncn1 [CBK037819]	113
CCOC(=O)NC(NCc1ccco1)(C(F)(F)F)C(F)(F)F [CBK057654]	102
COc1cc(CN2CCC(N3CCCCC3)CC2)c([N+](=O)[O-])cc1OC [CBK261858]	93.3
O=C(O)C1CCCN1C(=O)NCc1c(Cl)cccc1Cl (stereo not shown) [CBK161383]	88.1
Fc1ccc2nc(Nc3nc(-c4ccncc4)cs3)sc2c1 [CBK287487]	105
N=c1n(CCN2CCCC2)c2ccccc2n1CC(O)c1ccc(Cl)c(Cl)c1 (stereo not shown) [CBK263448C]	83.6
COC(=O)CN1C(=O)CC2(C1=O)C(=O)N(Cc1ccccc1)c1ccc(F)cc12 (stereo not shown) [CBK075143]	95.7
O=C(O)COc1ccc2c(=O)c(Oc3ccccc3Br)c(C(F)(F)F)oc2c1 [CBK263747]	101
O=C(OCc1ccccc1)N1CCN(c2ccccc2)CC1 [CBK200241]	116
COc1cc(/C=C2\NC(=S)NC2=O)c(Cl)cc1O [CBK102003]	65.5
CC(=O)NCc1cccc(-c2cc(C(=O)Nc3ccc4c(c3)OCCO4)cnc2-c2cccnc2)c1 [CBK160658]	88.6
O=C(O)c1c[nH]nc1-c1cccc(Br)c1 [CBK286963]	91.1
CCc1cc(Br)ccc1S(=O)(=O)NC1CCOC1=O (stereo not shown) [CBK044385]	97.5
COc1cccc([C@H]2CN(C(=O)c3ccccc3)[C@@H]3CCN(Cc4cccc(F)c4)C[C@H]23)c1 [CBK285626]	92.6

SMILES	viability at 28.5 h, 10 µM [%]
Cc1noc(C)c1S(=O)(=O)NCCc1c[nH]c2ccccc12 [CBK067311]	101
Cc1c(C(C)NCC2CCCC2O)cnn1-c1ccc(C#N)cc1 (stereo not shown) [CBK304019]	94.5
CCOc1cc(NC2CCN(C(=O)CC3(O)CCCCC3)CC2)ncn1 [CBK304141]	81.6
Clc1cccc(-c2cncc(N3CCN(c4ccncc4)CC3)n2)c1 [CBK066099]	95.4
Cc1cc(C)cc(-c2ccc(CC3(C(=O)NC(C)CO)CCOCC3)cc2)c1 (stereo not shown) [CBK286523]	110
COc1ccc(C(=O)Nc2nnc[nH]2)cc1 [CBK025569]	90.8
CSc1sc(NC(=O)Nc2cccc(C(F)(F)F)c2)cc1C#N [CBK017114]	93.9
CC1(C#N)CCCN(Cc2c[nH]nc2C(=O)O)C1 (stereo not shown) [CBK307010]	80.1
Cc1cc2c(o1)c1cnn(CC(=O)N3CCC(C)CC3)c(=O)c1n2C [CBK284236]	83.9
O=S(=O)(NC1CCCCC1n1cc(-c2ccccc2)nn1)c1ccc(Cl)cc1 (stereo not shown) [CBK266391]	99
CN1C[C@@H](NC(=O)COc2ccccc2)C[C@H]1c1nc(-c2ccncc2)no1 [CBK288855]	90.4
CCn1cncc1CN(CCCn1ccnc1)Cc1ccc(C)s1 [CBK283104]	93.6
CC(C)(C)c1cc(NC(=O)CN2CCN(c3cccc(Cl)c3)CC2)on1 [CBK304525]	85.7
O=C(O)C1Cc2nc[nH]c2C(c2ccc(F)cc2)N1 (stereo not shown) [CBK286970]	86.1
COCCOC(=O)C1=C(C)N(c2ccc(C(=O)O)cc2)C(=O)NC1c1ccccc1Cl (stereo not shown) [CBK296986]	97
O=C(NC1CC(=O)N(CCc2ccc(F)cc2)C1)c1cn2ccsc2n1 (stereo not shown) [CBK307263]	100
Cc1c(-c2ccc(Cl)cc2Cl)nc2ccccc2c1C(=O)NCCC(c1ccccc1)c1ccccc1 [CBK262634]	99.7
Cc1nc2cccnc2n1C1CCN(C(=O)NCc2ccccc2)CC1 [CBK282291]	87.5
CCCCn1nc2[nH]c(=O)cc(C(F)F)c2c1C [CBK288011]	93.8
NS(=O)(=O)c1ccc2nc(NC(=O)c3ccc(N4C(=O)CCC4=O)cc3)sc2c1 [CBK291192]	117
O=C(O)/C=C/c1cccc(-c2cncc(NCCc3ccncc3)n2)c1 [CBK065358]	99.5
Cc1cc2c(cc1S(=O)(=O)NCCc1ccccc1)NC(=O)CO2 [CBK270196]	102

SMILES	viability at 28.5 h, 10 µM [%]
CCOc1ccc(N(Cc2ccc(C(=O)O)cc2)S(C)(=O)=O)cc1 [CBK287231]	104
OCCc1ccc(Nc2cc(-c3ccsc3)ncn2)cc1 [CBK090769]	103
O=c1[nH]cc(COCc2ccccc2)c(=O)[nH]1 [CBK261847]	94
Cc1ncccc1COC(=O)N1CCCC(F)C1 (stereo not shown) [CBK200155]	118
O=C(CSc1ccc(F)cc1)Nc1cc(Cl)ccc1O [CBK268685]	87.5
O=C1NC2(CCNCC2)Oc2ccc(-c3cccc4ncccc34)cc21 [CBK083775T]	95.3
Cc1cc(Br)ccc1NC(=O)C(=O)NC1CC1 [CBK269284]	83.6
COc1ccc([N+](=O)[O-])cc1NC(=O)N[C@@H]1CC[C@@]2(c3ccc(OC)c(OC)c3)CCN(C)[C@H]2C1 [CBK036449T]	111
CCOc1ccc(CNCc2ccc(C(=O)O)cc2)cc1OC [CBK269590C]	87.3
N#Cc1cnc2ccccc2c1N1CCC(C(=O)O)CC1 [CBK288050]	90
c1ccc2c(CCN3CCC[C@@H]3CN3CCCC3)c[nH]c2c1 [CBK149104]	87.4
c1ccc2oc(SCCCCSc3nc4ccccc4o3)nc2c1 [CBK025465]	97.7
Cc1cc2ccccc2n2c(=O)n(CC(=O)N3CCCCCC3)nc12 [CBK283883]	82.3
Cc1cccc(C)c1NC(=O)CN(c1ccc(F)cc1)S(=O)(=O)c1ccc2c(c1)OCCO2 [CBK264878]	104
CC(=O)Nc1ccc(N2CC34C=CC(O3)C(C(=O)O)C4C2=O)cc1 (stereo not shown) [CBK287020]	100
Cc1ccc(CNc2oc(COc3ccc(Br)cc3)nc2C#N)cc1 [CBK074467]	99.5
CS(=O)(=O)c1ccc2nc(NC(=O)Cc3ccccc3)sc2c1 [CBK287339]	89.8
Cc1ccc2c(c1)cc(C(=O)N(C)CC1(C)COC1)n2C [CBK281723]	86.4
c1ccc(Nc2[nH]nnc2-c2ccccc2)cc1 [CBK261015]	116
O=C(O)CN1C(=O)C(O)=C(C(=O)c2ccc(Cl)cc2)C1c1ccccc1[N+](=O)[O-] (stereo not shown) [CBK263794]	98.5
COc1ccc(CCNC(=S)N2CCN(S(C)(=O)=O)CC2)cc1OC [CBK266917]	115
CC(C)(C)CC(=O)N1C[C@@H]2C[C@H](C1)c1ccc(NS(=O)(=O)c3cccs3)c(=O)n1C2 [CBK288708]	80.6
